Experiments:
Experiment in all cases: competitive isoTOP-ABPP
Type in all cases: binding
[1] = target: T1, GOLGB1 Golgin subfamily B member 1 (Homo sapiens, UniProt Q14789); conditions: for isoTOP-ABPP reactivity ratio at lysine Q14789_K103 / isoTOP-ABPP ratio (R) at liganded lysine Q14789_K103: 50 uM, in vitro; for isoTOP-ABPP reactivity ratio at lysine Q14789_K103: 231 sol; for isoTOP-ABPP ratio (R) at liganded lysine Q14789_K103: sol, 231
T1 construct: isoTOP-ABPP experiments performed in cell lysates (in vitro); endogenous in cells; host or cells: soluble proteome of human cancer cell lines (MDA-MB-231, Ramos, Jurkat)
Method in brief: (§1)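 Competition format: fragment (50 μM activated ester, 100 μM guanidinylating agent) versus vehicle in lysate, then lysine probe STP-alkyne at 0.1 mM for 1 h. Quantitation by light/heavy TEV-tag MS1 peak areas, reported as R.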

[2] = target: T2, UCHL5 Ubiquitin carboxyl-terminal hydrolase isozyme L5 (Homo sapiens, UniProt Q9Y5K5); conditions: for isoTOP-ABPP reactivity ratio at lysine Q9Y5K5_K323 / isoTOP-ABPP ratio (R) at liganded lysine Q9Y5K5_K323: 50 uM, in vitro; for isoTOP-ABPP reactivity ratio at lysine Q9Y5K5_K323: 231 sol; for isoTOP-ABPP ratio (R) at liganded lysine Q9Y5K5_K323: sol, 231
T2 construct: endogenous in cells; host or cells: MDA-MB-231 (soluble fraction of lysate)
T2 sequence (Q9Y5K5 1-329): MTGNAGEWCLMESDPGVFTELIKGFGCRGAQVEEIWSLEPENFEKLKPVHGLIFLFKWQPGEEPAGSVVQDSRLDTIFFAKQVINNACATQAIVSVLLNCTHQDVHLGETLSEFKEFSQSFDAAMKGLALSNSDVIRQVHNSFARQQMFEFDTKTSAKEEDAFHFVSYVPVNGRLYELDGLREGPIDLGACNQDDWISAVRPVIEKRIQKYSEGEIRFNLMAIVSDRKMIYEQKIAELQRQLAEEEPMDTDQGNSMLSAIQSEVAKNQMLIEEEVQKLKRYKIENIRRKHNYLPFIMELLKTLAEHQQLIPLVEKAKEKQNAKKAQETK
Method in brief: as §1

[3] = target: T3, RQCD1 Cell differentiation protein RCD1 homolog (Homo sapiens, UniProt Q92600); conditions: 50 uM, in vitro; for isoTOP-ABPP reactivity ratio at lysine Q92600_K230: 231 sol; for isoTOP-ABPP ratio (R) at liganded lysine Q92600_K230: sol, 231
T3 construct: isoTOP-ABPP experiments performed in cell lysates (in vitro); endogenous in cells; host or cells: soluble proteome of human cancer cell lines (MDA-MB-231; Ramos and Jurkat also prepared)
Method in brief: as §1

[4] = target: T4, MTOR Serine/threonine-protein kinase mTOR (Homo sapiens, UniProt P42345); conditions: for isoTOP-ABPP reactivity ratio at lysine P42345_K2066: 50 uM, 231 sol, in vitro
T4 construct: isoTOP-ABPP experiments performed in cell lysates (in vitro); endogenous in cells; host or cells: soluble proteome of human cancer cell lines (MDA-MB-231; Ramos and Jurkat also prepared)
Method in brief: as §1

OLA1 Obg-like ATPase 1 = target: T5, OLA1 Obg-like ATPase 1 (Homo sapiens, UniProt Q9NTK5); conditions: for isoTOP-ABPP reactivity ratio at lysine Q9NTK5_K248 / isoTOP-ABPP ratio (R) at liganded lysine Q9NTK5_K248: 50 uM, in vitro; for isoTOP-ABPP reactivity ratio at lysine Q9NTK5_K248: 231 sol; for isoTOP-ABPP ratio (R) at liganded lysine Q9NTK5_K248: sol, 231
T5 construct: endogenous in cells; host or cells: MDA-MB-231 (soluble fraction of lysate)
Method in brief: as §1

[5] = target: T6, TRAP1 Heat shock protein 75 kDa, mitochondrial (Homo sapiens, UniProt Q12931); conditions: for isoTOP-ABPP reactivity ratio at lysine Q12931_K699 / isoTOP-ABPP ratio (R) at liganded lysine Q12931_K699: 50 uM, in vitro; for isoTOP-ABPP reactivity ratio at lysine Q12931_K699: 231 sol; for isoTOP-ABPP ratio (R) at liganded lysine Q12931_K699: sol, 231
T6 construct: isoTOP-ABPP experiments performed in cell lysates (in vitro); endogenous in cells; host or cells: soluble proteome of human cancer cell lines (MDA-MB-231, Ramos, Jurkat)
T6 sequence (Q12931 60-704): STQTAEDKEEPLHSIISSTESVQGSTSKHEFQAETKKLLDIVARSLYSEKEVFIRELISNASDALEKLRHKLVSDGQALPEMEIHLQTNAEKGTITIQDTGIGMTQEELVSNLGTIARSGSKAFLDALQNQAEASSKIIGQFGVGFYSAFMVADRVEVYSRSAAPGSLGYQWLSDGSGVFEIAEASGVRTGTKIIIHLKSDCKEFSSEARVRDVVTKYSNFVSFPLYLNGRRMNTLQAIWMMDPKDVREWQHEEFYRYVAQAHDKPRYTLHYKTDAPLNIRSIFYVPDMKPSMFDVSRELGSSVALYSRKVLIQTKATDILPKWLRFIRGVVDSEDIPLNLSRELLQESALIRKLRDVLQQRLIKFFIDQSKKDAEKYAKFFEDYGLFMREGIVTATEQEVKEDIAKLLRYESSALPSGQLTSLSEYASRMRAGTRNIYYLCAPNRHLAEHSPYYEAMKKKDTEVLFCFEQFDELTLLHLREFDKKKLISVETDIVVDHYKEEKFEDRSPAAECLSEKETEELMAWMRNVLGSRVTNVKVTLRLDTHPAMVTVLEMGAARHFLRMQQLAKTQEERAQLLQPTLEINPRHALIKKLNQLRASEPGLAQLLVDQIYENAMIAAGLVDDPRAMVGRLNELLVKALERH
Method in brief: as §1

T3 sequence (Q92600 whole entry): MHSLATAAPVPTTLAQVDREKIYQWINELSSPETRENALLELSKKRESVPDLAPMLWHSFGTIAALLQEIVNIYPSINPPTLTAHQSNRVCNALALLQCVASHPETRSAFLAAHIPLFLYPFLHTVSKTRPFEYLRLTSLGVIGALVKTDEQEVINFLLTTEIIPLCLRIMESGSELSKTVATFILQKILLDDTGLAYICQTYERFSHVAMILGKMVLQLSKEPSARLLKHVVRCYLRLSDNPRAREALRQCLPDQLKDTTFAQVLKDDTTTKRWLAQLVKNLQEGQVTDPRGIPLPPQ
T1 sequence (Q14789 whole entry): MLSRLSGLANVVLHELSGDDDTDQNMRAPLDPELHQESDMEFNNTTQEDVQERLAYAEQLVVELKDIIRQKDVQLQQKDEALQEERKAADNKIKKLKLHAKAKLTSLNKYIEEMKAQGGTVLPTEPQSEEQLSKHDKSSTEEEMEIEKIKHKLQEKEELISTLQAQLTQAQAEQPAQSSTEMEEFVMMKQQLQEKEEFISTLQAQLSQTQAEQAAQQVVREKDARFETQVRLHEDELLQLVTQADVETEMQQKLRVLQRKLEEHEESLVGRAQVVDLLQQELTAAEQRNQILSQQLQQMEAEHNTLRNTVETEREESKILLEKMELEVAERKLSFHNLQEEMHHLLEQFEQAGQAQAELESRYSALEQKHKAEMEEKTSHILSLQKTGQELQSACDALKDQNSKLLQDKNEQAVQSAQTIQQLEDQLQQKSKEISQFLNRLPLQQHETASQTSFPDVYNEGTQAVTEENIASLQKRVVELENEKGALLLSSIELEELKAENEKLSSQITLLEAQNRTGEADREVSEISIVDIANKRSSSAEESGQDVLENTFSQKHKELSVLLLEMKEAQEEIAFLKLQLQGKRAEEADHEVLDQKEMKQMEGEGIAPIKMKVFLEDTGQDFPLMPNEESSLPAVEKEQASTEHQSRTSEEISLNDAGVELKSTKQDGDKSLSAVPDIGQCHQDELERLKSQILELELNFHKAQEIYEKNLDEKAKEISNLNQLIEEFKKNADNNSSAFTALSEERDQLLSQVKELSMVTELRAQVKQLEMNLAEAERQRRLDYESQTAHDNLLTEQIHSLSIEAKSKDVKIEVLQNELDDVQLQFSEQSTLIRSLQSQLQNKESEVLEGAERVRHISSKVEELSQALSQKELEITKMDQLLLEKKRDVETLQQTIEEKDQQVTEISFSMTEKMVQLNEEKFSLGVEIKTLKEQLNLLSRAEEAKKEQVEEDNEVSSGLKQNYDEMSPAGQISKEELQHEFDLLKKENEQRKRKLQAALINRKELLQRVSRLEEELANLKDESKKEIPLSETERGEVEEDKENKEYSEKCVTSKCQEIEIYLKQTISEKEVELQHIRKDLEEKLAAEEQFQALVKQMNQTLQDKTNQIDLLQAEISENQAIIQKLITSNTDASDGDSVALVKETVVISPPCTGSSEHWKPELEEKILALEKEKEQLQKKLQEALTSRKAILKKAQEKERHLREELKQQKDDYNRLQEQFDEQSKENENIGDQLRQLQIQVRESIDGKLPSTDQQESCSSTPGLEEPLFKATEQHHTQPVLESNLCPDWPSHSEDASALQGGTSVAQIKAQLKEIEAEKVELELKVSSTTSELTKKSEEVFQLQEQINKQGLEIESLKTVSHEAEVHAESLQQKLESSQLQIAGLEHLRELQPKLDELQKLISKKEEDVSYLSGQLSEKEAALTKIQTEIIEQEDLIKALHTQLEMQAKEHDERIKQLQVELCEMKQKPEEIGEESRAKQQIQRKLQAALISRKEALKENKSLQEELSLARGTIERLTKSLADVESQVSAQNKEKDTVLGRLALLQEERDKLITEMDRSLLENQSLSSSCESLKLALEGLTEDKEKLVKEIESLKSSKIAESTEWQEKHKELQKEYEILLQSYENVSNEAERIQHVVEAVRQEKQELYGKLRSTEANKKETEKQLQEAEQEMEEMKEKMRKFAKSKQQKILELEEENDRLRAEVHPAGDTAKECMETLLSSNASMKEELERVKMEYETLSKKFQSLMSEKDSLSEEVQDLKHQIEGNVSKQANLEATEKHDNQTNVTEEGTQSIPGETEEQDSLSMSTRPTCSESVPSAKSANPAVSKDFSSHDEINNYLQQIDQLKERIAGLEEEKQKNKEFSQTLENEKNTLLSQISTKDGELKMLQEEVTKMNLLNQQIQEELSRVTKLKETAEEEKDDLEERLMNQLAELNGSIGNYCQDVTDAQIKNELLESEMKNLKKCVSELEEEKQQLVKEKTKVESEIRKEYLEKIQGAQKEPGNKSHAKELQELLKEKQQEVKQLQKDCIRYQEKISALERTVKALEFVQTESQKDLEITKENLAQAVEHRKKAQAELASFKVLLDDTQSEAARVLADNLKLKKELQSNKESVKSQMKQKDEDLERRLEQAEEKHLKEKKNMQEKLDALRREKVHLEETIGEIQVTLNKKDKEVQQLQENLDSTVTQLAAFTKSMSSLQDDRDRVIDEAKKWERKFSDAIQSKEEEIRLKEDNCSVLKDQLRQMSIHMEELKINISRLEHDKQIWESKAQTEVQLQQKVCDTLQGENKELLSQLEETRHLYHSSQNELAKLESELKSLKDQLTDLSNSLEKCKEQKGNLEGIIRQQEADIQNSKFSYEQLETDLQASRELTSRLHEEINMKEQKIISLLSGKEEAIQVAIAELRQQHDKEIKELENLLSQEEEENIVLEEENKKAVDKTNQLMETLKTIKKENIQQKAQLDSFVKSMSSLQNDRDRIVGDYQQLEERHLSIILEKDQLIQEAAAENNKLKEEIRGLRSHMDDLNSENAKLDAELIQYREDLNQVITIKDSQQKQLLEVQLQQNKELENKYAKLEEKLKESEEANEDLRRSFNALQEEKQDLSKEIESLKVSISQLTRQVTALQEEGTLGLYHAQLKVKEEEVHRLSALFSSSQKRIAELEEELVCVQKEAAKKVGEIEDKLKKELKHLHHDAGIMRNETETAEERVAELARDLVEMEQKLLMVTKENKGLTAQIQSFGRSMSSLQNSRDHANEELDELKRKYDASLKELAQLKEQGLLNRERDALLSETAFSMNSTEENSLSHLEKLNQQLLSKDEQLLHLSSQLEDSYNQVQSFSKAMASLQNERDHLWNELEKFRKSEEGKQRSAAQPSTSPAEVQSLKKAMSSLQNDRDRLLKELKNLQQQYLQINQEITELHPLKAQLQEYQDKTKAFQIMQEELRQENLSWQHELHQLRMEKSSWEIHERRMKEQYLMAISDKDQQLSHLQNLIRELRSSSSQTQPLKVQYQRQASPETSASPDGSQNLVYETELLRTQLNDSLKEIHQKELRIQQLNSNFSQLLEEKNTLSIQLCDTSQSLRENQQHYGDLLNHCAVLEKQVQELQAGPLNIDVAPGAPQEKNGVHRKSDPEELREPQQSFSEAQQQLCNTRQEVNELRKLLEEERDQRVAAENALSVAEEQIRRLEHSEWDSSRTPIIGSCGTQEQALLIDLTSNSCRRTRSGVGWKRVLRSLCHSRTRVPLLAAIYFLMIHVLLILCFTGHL

Compound	isoTOP-ABPP reactivity ratio at lysine Q14789_K103 [1]	isoTOP-ABPP reactivity ratio at lysine Q9Y5K5_K323 [2]	isoTOP-ABPP reactivity ratio at lysine P42345_K2066 [4]	isoTOP-ABPP reactivity ratio at lysine Q9NTK5_K248 (OLA1 Obg-like ATPase 1)	isoTOP-ABPP reactivity ratio at lysine Q12931_K699 [5]	isoTOP-ABPP ratio (R) at liganded lysine Q14789_K103 [1]	isoTOP-ABPP ratio (R) at liganded lysine Q9Y5K5_K323 [2]	isoTOP-ABPP ratio (R) at liganded lysine Q92600_K230 [3]	isoTOP-ABPP ratio (R) at liganded lysine Q12931_K699 [5]	isoTOP-ABPP ratio (R) at liganded lysine Q9NTK5_K248 (OLA1 Obg-like ATPase 1)	also measured
O=C(CCc1coc2cc(F)ccc2c1=O)Oc1c(F)c(F)c(F)c(F)c1F [fragment 26, Pentafluorophenyl 3-(7-fluoro-4-oxo-4H-chromen-3-yl)propanoate]	1.1	1.1	2.8	1.0							isoTOP-ABPP reactivity ratio at lysine Q92600_K230 [3]: 1.2
O=C(CN1C(=O)c2ccccc2C1=O)Oc1c(F)c(F)c(F)c(F)c1F [fragment 27, Pentafluorophenyl 2-(1,3-dioxoisoindolin-2-yl)acetate]	1.3	1.1	2.5	1.1	0.7						
CCn1cc(C(=O)Oc2c(F)c(F)c(F)c(F)c2F)c(=O)c2ccc(C)nc21 [fragment 28, Pentafluorophenyl 1-ethyl-7-methyl-4-oxo-1,4-dihydro-1,8-naphthyridine-3-carboxylate]	0.9	1.2	1.0	1.0	0.9						
O=C(CCc1cn(-c2ccccc2)nc1-c1ccccc1)Oc1ccc([N+](=O)[O-])cc1[N+](=O)[O-] [fragment 29, 2,4-Dinitrophenyl 3-(1,3-diphenyl-1H-pyrazol-4-yl)propanoate]	1.1	1.1	1.0	0.9	2.2						isoTOP-ABPP reactivity ratio at lysine Q92600_K230 [3]: 1.0
O=C(Oc1ccc([N+](=O)[O-])cc1[N+](=O)[O-])c1ccc(Oc2ccccc2)cc1 [fragment 39, 2,4-Dinitrophenyl 4-phenoxybenzoate]						0.9	0.9	0.8	0.9	0.9	
CC(C)(C)OC(=O)NCCCC(=O)Oc1ccc([N+](=O)[O-])cc1[N+](=O)[O-] [fragment 41, 2,4-Dinitrophenyl 4-((tert-butoxycarbonyl)amino)butanoate]						1.1	1.0	2.6	1.3	1.0	
O=C(Oc1ccc([N+](=O)[O-])cc1[N+](=O)[O-])C(c1ccccc1)(c1ccccc1)c1ccccc1 [fragment 42, 2,4-Dinitrophenyl 2,2,2-triphenylacetate]						0.9	1.0	0.8	1.0	1.0	
O=C(Oc1c(F)c(F)cc(F)c1F)c1cc(C(F)(F)F)cc(C(F)(F)F)c1 [fragment 48, 2,3,5,6-Tetrafluorophenyl 3,5-bis(trifluoromethyl)benzoate]											isoTOP-ABPP ratio, lysine Q14789_K103 ([1]; 50 uM_231_sol_in vitro): 1.1; isoTOP-ABPP ratio, lysine Q9Y5K5_K323 ([2]; 50 uM_231_sol_in vitro): 0.9; isoTOP-ABPP ratio, lysine Q12931_K699 ([5]; 50 uM_231_sol_in vitro): 1.0; isoTOP-ABPP ratio, lysine P42345_K2066 ([4]; 50 uM_231_sol_in vitro): 1.0; isoTOP-ABPP ratio, lysine Q9NTK5_K248 (OLA1 Obg-like ATPase 1; 50 uM_231_sol_in vitro): 1.0

— US20210255193A1, “LYSINE REACTIVE PROBES AND USES THEREOF” (The Scripps Research Institute, priority 2017, published 2021)
